Measurements taken from paper PMC8795197, “Safety and activity of WX-0593 (Iruplinalkib) in patients with ALK- or ROS1-rearranged advanced non-small cell lung cancer: a phase 1 dose-escalation and dose-expansion trial” (Signal Transduction and Targeted Therapy, 2022).
Values joined by “and” are separate entries in the source; they are usually repeats but may differ in a detail not shown here. Identical values can stand only once. “Also recorded” adds a separate entry of the source. Like-named read-outs stand apart in the source and are kept apart here.

Tests used:
[1] = biological target: ALK mutant C1156Y (Homo sapiens, UniProt Q9UM73, C1156Y); assay: In vitro enzyme inhibition study; type: biochemical; conditions: difference in inhibitory activity within 3 times
ALK mutant C1156Y, sequence (Q9UM73 19-1620 C1156Y): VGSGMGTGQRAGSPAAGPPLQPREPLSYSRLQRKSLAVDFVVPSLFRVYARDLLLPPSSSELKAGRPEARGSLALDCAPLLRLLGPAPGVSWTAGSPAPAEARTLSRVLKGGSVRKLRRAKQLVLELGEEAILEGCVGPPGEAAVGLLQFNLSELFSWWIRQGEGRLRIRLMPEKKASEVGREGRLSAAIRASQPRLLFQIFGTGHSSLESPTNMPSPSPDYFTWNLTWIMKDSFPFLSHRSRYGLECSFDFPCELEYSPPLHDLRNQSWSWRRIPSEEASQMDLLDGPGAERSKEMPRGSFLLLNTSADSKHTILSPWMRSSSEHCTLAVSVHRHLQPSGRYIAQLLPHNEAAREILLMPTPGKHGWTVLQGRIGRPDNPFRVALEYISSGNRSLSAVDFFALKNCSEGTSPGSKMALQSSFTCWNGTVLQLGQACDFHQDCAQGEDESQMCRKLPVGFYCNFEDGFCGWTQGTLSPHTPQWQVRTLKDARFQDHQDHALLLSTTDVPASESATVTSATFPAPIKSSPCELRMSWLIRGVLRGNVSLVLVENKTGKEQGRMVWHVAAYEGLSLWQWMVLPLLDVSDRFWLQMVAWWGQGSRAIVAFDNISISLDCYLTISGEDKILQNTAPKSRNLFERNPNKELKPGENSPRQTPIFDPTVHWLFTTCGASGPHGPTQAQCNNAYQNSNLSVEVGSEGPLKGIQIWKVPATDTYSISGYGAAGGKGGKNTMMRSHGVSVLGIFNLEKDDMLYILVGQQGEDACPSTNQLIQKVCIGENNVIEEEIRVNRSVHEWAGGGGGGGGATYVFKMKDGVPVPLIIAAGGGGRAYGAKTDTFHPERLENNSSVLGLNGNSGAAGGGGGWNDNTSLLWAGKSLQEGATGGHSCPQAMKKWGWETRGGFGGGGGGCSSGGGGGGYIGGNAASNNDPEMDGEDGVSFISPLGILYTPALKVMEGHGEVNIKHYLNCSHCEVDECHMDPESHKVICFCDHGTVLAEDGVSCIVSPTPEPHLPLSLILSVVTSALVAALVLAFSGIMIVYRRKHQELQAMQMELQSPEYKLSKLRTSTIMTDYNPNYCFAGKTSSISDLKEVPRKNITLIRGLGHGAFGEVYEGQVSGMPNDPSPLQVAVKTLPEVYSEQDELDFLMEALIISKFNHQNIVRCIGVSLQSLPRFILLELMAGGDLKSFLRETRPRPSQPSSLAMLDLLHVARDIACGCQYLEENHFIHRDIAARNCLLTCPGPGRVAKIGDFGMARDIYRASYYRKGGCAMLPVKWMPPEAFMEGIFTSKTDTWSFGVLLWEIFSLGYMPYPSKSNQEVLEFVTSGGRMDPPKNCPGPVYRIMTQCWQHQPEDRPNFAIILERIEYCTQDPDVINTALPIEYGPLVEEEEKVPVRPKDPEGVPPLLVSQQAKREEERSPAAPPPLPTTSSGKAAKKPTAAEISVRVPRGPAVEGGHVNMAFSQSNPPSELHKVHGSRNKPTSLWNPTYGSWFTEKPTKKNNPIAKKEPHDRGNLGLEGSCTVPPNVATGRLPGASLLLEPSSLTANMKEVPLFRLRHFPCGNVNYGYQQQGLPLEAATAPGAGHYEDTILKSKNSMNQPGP
Text: (§1) The inhibitory activities were low for other serine, threonine, and tyrosine […], except for the EGFR wild type, within the tested concentration range.

[2] = biological target: EGFR L858R/T790M (Homo sapiens, UniProt P00533, L858R/T790M); assay: In vitro enzyme inhibition study; type: biochemical; conditions: difference in inhibitory activity within 3 times
EGFR L858R/T790M, sequence (P00533 25-1210 T790M/L858R): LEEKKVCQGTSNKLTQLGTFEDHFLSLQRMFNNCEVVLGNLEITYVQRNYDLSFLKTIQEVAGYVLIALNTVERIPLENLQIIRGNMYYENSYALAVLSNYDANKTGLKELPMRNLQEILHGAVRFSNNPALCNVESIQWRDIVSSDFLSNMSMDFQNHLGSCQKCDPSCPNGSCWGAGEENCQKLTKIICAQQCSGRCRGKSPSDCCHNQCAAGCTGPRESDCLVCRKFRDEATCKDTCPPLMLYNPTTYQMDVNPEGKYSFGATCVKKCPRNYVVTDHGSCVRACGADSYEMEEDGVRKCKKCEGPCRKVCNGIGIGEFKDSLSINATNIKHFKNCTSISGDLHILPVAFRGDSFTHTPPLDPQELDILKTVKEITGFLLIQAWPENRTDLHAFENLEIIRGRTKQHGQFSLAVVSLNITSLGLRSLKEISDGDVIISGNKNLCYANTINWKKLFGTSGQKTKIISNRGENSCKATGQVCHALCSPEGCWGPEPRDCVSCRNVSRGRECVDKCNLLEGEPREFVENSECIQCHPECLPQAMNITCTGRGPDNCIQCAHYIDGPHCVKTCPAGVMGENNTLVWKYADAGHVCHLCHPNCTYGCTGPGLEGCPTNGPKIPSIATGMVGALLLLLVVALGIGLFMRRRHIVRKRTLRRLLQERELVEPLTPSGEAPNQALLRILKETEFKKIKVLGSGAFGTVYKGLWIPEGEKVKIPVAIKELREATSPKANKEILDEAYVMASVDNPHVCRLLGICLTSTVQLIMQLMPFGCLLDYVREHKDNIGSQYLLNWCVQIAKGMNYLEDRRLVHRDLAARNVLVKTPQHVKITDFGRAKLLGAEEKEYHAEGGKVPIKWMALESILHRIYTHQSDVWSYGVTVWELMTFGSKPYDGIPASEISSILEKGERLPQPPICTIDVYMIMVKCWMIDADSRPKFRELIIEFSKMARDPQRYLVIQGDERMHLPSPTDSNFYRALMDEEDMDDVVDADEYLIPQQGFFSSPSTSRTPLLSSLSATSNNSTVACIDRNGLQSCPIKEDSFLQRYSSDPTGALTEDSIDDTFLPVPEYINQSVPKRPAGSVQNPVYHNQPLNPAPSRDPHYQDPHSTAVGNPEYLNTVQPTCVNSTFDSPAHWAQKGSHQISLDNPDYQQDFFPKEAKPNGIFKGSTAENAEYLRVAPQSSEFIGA
Text: as §1

[3] = biological target: ALK wild type (Homo sapiens, UniProt Q9UM73); assay: In vitro enzyme inhibition study; type: biochemical; conditions: difference in inhibitory activity within 3 times
ALK wild type, sequence (Q9UM73 19-1620): as the sequence (Q9UM73 19-1620 C1156Y) above, with Y1138C counted along it
Text: as §1

[4] = Reproductive toxicity study; conditions: rat, in vivo
[5] = Metabolite identification in plasma; type: in vivo, cynomolgus monkey; conditions: oral WX-0593
Text: Under current experimental conditions, 1 metabolite in addition to the parent drug was detected in monkey plasma: a demethylation metabolite, M2 (MW = 554.23, P - CH2). Based on the % peak area from mass spectrometry, the drug exists primarily as the parent drug in the plasma of both male and female monkeys (99.06% in females and 99.47% in males). Metabolite M2 (0.94% in females and 0.53% in males) was a secondary metabolite. Based on the types of metabolites, it is speculated that WX-0593 is mainly metabolized through demethylation after oral administration in monkeys. There was no significant difference in metabolites between female and male monkeys.

[6] = system: NCI-H1975 (EGFR mutant L858R/T790M); assay: Cell proliferation inhibition assay; type: cell-based
[7] = system: advanced NSCLC patients with ALK or ROS1 rearrangement; assay: Phase 1 trial: safety (adverse events, DLT, MTD; NCI CTCAE 4.03); type: in vivo
Method: This FIH, single arm, multicenter, phase 1 study was conducted in advanced NSCLC patients with ALK or ROS1 rearrangement, composed of the dose-escalation and dose-expansion phases. The dose-escalation and dose-expansion phases were conducted at 4 and 38 centers in mainland China, respectively (Supplementary Table S1), and were done in compliance with the Declaration of Helsinki and International Council for Harmonisation guidelines for Good Clinical Practice. The study protocol and amendments were approved by the independent ethics committee at every participating site. Written informed consent was provided by all patients before being screened for enrolment.
ALK and ROS1 rearrangements were established by immunohistochemistry, reverse transcription-polymerase chain reaction (PCR), amplification refractory mutation system-PCR, fluorescence in situ hybridization, or next-generation sequencing. Patients must have at least one measurable lesion as defined by Response Evaluation Criteria in Solid Tumors (RECIST) version 1.1. Other key eligibility criteria included an age of 18–70 years, an Eastern Cooperative Oncology Group performance status of 0 or 1, a life expectancy of at least 12 weeks, and adequate organ function, including adequate function of bone marrow (absolute neutrophil count ≥1.5 × 10^9/L, platelets ≥100 × 10^9/L, hemoglobin ≥90 g/L) and liver function (total bilirubin ≤1.5× upper limit of normal [ULN], ALT and AST ≤2.5× ULN [≤5.0× ULN for liver metastasis patients]).
In the dose-escalation phase, a standard 3 + 3 design was used to determine the MTD.[29]
Three patients were assigned to each dose level.
Patients continued treatment until documented disease progression, unacceptable toxicity, withdrawal of consent, the start of a new anticancer treatment, death, loss of follow-up, or end of the study (whichever occurred first). Patients were permitted to continue treatment after progression if they were still experiencing clinical benefit, at the discretion of the investigator.
For grade ≥3 AEs (also including grade ≥2 cardiac dysfunction and renal dysfunction, etc.), dose interruption could occur.
Patients performed imaging evaluation at baseline, with computed tomography or magnetic resonance imaging of the chest, abdomen, pelvis, and brain. […] In the dose-expansion phase, tumor response was assessed every 6 weeks until 48 weeks and every 12 weeks thereafter until documented disease progression. If responses (CR or PR) were observed, repeat assessments were required to confirm the responses 4 weeks after the initial evaluation. Tumor responses were assessed by local investigators according to RECIST 1.1.
Safety parameters included TEAEs, SAEs, and TRAEs.

[8] = system: Ba/F3 (EML4-ALK-L1196M); assay: Cell proliferation inhibition assay; type: cell-based
[9] = biological target: Eta (Homo sapiens, UniProt P25101); assay: GPCR antagonist screening assay; type: cell-based
Eta, sequence (P25101 21-427): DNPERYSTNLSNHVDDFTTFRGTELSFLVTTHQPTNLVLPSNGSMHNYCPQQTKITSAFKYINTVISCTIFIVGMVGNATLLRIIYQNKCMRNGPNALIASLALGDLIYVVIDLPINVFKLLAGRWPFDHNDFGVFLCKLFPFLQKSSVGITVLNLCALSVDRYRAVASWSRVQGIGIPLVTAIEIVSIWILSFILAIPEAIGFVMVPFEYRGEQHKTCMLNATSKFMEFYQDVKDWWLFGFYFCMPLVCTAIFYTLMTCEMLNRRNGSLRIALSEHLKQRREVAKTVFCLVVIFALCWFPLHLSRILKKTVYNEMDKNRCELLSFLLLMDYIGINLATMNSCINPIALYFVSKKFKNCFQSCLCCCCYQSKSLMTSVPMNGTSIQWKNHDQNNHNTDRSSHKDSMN

[10] = TEAE, Grade 1–2, total (n = 152)
[11] = TEAE, ≥Grade 3, total (n = 152)
[12] = TEAE, ≥Grade 3, dose: 30, 60, 90, 120, 180, 240, 300 mg
[13] = TRAE, ≥grade 3, dose: 30, 60, 90, 120, 180, 240, 300 mg

Which results are given for COc1cc(N2CCC3(CCN(C)CC3)CC2)ccc1Nc1ncc(Cl)c(Nc2ccccc2P(C)(C)=O)n1 [WX-0593]?
inhibitory activity compared with brigatinib [1]: comparable with the activity of brigatinib; also recorded: comparable to brigatinib; inhibitory activity compared with brigatinib [2]: comparable with the activity of brigatinib; also recorded: comparable to brigatinib; inhibitory activity compared with brigatinib [3]: comparable with the activity of brigatinib; also recorded: comparable to brigatinib; NOAEL as multiple of the effective dose in nude mice [4]: 8 times; NOAEL ([4]; read-out: NOAEL of fertility and early embryo developmental toxicity): 10 mg/kg; % peak area from mass spectrometry in plasma ([5]; female monkeys): 99.06%; % peak area from mass spectrometry in plasma ([5]; male monkeys): 99.47%; growth inhibition [6]: somewhat inhibits the growth; Dizziness, patients n (%) [7]: 0; ALT elevated, patients n (%) [7, 10]: 39 (26%); AST elevated, patients n (%) [7, 10]: 41 (27%); CPK elevated, patients n (%) [7, 10]: 31 (20%); Dizziness, patients n (%) [7, 10]: 16 (11%); Headache, patients n (%) [7, 10]: 14 (9%); Hypertension, patients n (%) [7, 10]: 24 (16%); Hypertriglyceridemia, patients n (%) [7, 10]: 32 (21%); Upper respiratory infection, patients n (%) [7, 10]: 16 (11%); diarrhea, patients n (%) [7, 10]: 21 (14%); hypercholesterolemia, patients n (%) [7, 10]: 42 (28%); hyperlipidemia, patients n (%) [7, 10]: 21 (14%); nausea, patients n (%) [7, 10]: 48 (32%); rash, patients n (%) [7, 10]: 19 (13%); γ-GGT elevated, patients n (%) [7, 10]: 12 (8%); Headache, patients n (%) ([7]; TEAE, all grade, total (n = 152)): 14 (9%); ALT elevated, patients n (%) [7, 11]: 6 (4%); AST elevated, patients n (%) [7, 11]: 6 (4%); CPK elevated, patients n (%) [7, 11]: 0; Headache, patients n (%) [7, 11]: 0; Hypertension, patients n (%) [7, 11]: 9 (6%); Hypertriglyceridemia, patients n (%) [7, 11]: 5 (3%); Upper respiratory infection, patients n (%) [7, 11]: 1 (1%); diarrhea, patients n (%) [7, 11]: 1 (1%); hypercholesterolemia, patients n (%) [7, 11]: 5 (3%); hyperlipidemia, patients n (%) [7, 11]: 1 (1%); nausea, patients n (%) [7, 11]: 0; rash, patients n (%) [7, 11]: 1 (1%); vomiting, patients n (%) [7, 11]: 0; γ-GGT elevated, patients n (%) [7, 11]: 5 (3%); CPK elevated, patients n (%) [7, 12]: 0; Dizziness, patients n (%) [7, 12]: 0; Headache, patients n (%) [7, 12]: 0; nausea, patients n (%) [7, 12]: 0; vomiting, patients n (%) [7, 12]: 0; ALT elevated, patients n (%) ([7]; TRAE, grade 1-2, total (n=152)): 38(25%); AST elevated, patients n (%) ([7]; TRAE, grade 1-2, total (n=152)): 41(27%); CPK elevated, patients n (%) ([7]; TRAE, grade 1-2, total (n=152)): 25(16%); Hypertension, patients n (%) ([7]; TRAE, grade 1-2, total (n=152)): 18(12%); Hypertriglyceridemia, patients n (%) ([7]; TRAE, grade 1-2, total (n=152)): 28(18%); diarrhea, patients n (%) ([7]; TRAE, grade 1-2, total (n=152)): 21(14%); hypercholesterolemia, patients n (%) ([7]; TRAE, grade 1-2, total (n=152)): 39(26%); hyperlipidemia, patients n (%) ([7]; TRAE, grade 1-2, total (n=152)): 15(10%); nausea, patients n (%) ([7]; TRAE, grade 1-2, total (n=152)): 43(28%); rash, patients n (%) ([7]; TRAE, grade 1-2, total (n=152)): 15(10%); vomiting, patients n (%) ([7]; TRAE, grade 1-2, total (n=152)): 37(24%); γ-GGT elevated, patients n (%) ([7]; TRAE, grade 1-2, total (n=152)): 10(7%); CPK elevated, patients n (%) ([7]; TRAE, ≥grade 3, total (n=152)): 0; diarrhea, patients n (%) ([7]; TRAE, ≥grade 3, total (n=152)): 1(1%); hypercholesterolemia, patients n (%) ([7]; TRAE, ≥grade 3, total (n=152)): 1(1%); hyperlipidemia, patients n (%) ([7]; TRAE, ≥grade 3, total (n=152)): 0; nausea, patients n (%) ([7]; TRAE, ≥grade 3, total (n=152)): 0; rash, patients n (%) ([7]; TRAE, ≥grade 3, total (n=152)): 1(1%); vomiting, patients n (%) ([7]; TRAE, ≥grade 3, total (n=152)): 0; CPK elevated, patients n (%) [7, 13]: 0; hyperlipidemia, patients n (%) [7, 13]: 0; nausea, patients n (%) [7, 13]: 0; vomiting, patients n (%) [7, 13]: 0; maximum tolerated dose (MTD) ([7]; dose-escalation 30–300 mg): could not be identified; also recorded: not reached; dose-limiting toxicities (DLTs) ([7]; dose-escalation, 300 mg, in 1 of 3 patients: grade 3 QT interval prolonged, grade 2 chronic heart failure): Two; AE led to dose interruption, patients n (%) ([7]; total (n=152)): 30(20%); AE led to dose interruption, treatment-related, patients n (%) ([7]; total (n=152)): 30 (20%) and 27(18%); AE led to dose reduction, treatment-related, patients n (%) ([7]; total (n=152)): 4 (3%); AE led to treatment termination, patients n (%) ([7]; total (n=152)): 11(7%); Adverse events, total, patients n (%) ([7]; total (n=152)): 148 (97%); Death during treatment, not related with disease progression, patients n (%) ([7]; total (n=152)): 6(4%); Death during treatment, related with disease progression, patients n (%) ([7]; total (n=152)): 1(1%); Discontinuation due to adverse event, patients n (%) ([7]; total (n=152)): 11(7%); Discontinuation due to adverse event, treatment-related, patients n (%) ([7]; total (n=152)): 8(5%); Serious adverse event, patients n (%) ([7]; total (n=152)): 25 (16%); ≥grade 3 adverse event, patients n (%) ([7]; total (n=152)): 53 (35%); growth inhibition [8]: significantly inhibits the growth; IC50 [9]: 500 nM
